Source: US9776976B2, “Triazolone compounds and uses thereof” (Inception 2, Inc., priority 2013, dated 2017)

Experiments:
Format in all cases: cell-based
[1] = target: T1, human PPAR γ (Homo sapiens, UniProt P37231); experiment: Human PPARγ reporter assay (Indigo Biosciences kit); conditions: antagonist mode, agonist at ~EC80; read-out: PPARγ
T1 sequence (P37231 1-505): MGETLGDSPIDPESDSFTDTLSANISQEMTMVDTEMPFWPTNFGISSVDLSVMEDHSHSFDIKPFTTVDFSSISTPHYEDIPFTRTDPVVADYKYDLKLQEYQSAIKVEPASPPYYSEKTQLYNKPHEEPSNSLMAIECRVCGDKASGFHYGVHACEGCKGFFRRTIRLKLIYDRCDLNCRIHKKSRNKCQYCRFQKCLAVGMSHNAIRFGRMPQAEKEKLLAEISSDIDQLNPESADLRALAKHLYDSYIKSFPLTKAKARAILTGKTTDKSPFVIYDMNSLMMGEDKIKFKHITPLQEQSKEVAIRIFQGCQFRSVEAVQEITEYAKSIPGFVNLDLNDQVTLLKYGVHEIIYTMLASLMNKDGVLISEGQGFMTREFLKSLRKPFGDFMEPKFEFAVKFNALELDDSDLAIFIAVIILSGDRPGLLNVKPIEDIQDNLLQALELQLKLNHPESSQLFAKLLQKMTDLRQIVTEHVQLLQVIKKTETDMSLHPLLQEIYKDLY
Protocol: (§1) Target Selectivity Assays
(§2) To determine species selectivity, a Mouse PPARα Reporter Assay System was used (Indigo Biosciences, Cat. #M00111). Activity of test compounds to antagonize or agonize other isoforms of human PPAR, for example β/δ and γ, were assessed using the corresponding kits from Indigo Biosciences (Cat. #IB00121 and #IB00101, respectively). In addition to PPAR activity, compounds were also screened for activity against other nuclear hormone receptors including Estrogen Receptor β, Glucocorticoid Receptor and Thyroid Receptor β using commercially available kits (Indigo Biosciences, Cat. #IB00411, IB00201 and IB01101, respectively). Each assay system from Indigo Biosciences uses technology analogous to the human PPARα kit, with the variance being that the cells used for each assay were engineered to over-express the receptor of interest. In addition, the appropriate receptor agonist (included with each kit) was used at ˜EC80 for assays in which antagonist potency was being assessed.

[2] = target: T2, Human PPARα (Homo sapiens, UniProt Q07869); experiment: Human PPARα Reporter Assay (luciferase, Indigo Biosciences); conditions: antagonist mode, reporter cells, overnight incubation
T2 construct: host or cells: proprietary non-human mammalian cells
T2 sequence (Q07869 1-468): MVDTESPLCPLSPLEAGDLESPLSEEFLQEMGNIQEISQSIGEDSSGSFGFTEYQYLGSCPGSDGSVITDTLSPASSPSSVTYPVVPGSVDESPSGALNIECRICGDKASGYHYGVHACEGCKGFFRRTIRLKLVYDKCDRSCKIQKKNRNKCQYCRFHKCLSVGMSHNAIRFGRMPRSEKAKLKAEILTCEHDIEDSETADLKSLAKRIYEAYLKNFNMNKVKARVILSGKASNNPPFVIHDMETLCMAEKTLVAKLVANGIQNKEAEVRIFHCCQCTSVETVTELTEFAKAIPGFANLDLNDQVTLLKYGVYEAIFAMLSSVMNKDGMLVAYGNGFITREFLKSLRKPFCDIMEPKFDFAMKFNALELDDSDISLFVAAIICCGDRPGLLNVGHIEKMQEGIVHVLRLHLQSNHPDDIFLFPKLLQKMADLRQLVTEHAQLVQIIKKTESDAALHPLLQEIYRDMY
Protocol: Human PPARα Reporter Assay The screening of test compounds for agonist or antagonist activities against human PPARα receptors was performed using a commercial kit, Human PPARα Reporter Assay System (Indigo Biosciences, Cat. #IB00111). This nuclear receptor assay system utilizes proprietary non-human mammalian cells engineered to provide constitutive, high-level expression of Human PPARα. Because these cells incorporate a PPARα-responsive luciferase reporter gene, quantifying expressed luciferase activity provides a sensitive surrogate measure of PPARα activity in the treated cells. The primary application of this reporter assay system is in the screening of test samples to quantify any functional activity, either agonist or antagonist, that they may exert against human PPARα. […] Briefly, reporter cells are dispensed into wells of the assay plate and then immediately dosed with test compounds. Following an overnight incubation, the treatment media is discarded and Luciferase Detection Reagent (LDR) is added. The intensity of light emission from the ensuing luciferase reaction provides a sensitive measure that is directly proportional to the relative level of PPARα activation in the reporter cells.

[3] = target: T3, human PPAR β/δ (Homo sapiens, UniProt Q03181); experiment: Human PPAR β/δ reporter assay (luciferase, Indigo Biosciences kit); conditions: antagonist mode, agonist at ~EC80; read-out: PPARδ Luciferase IC50
T3 construct: host or cells: engineered reporter cells (analogous to the PPARα kit)
T3 sequence (Q03181 1-441): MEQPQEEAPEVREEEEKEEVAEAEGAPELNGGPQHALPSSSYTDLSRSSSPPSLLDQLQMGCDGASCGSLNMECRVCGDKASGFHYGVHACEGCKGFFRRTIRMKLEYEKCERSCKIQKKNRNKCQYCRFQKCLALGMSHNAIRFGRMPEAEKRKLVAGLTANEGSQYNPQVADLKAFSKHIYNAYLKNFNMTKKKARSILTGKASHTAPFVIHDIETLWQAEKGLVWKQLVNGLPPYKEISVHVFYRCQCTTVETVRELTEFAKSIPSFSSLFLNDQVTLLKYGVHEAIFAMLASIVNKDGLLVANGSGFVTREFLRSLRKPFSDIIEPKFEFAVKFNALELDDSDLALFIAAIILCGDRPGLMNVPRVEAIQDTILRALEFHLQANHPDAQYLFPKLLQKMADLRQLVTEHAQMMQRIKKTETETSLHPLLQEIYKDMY
Protocol: as §1, §2

SMILES	IC50 [1]	IC50 [2]	IC50 [3]
CCOc1ccc(-c2ccc(CCCc3nn(-c4ccc(C(F)(F)F)cc4)c(=O)n3-c3ccccc3CC)cc2)cc1CC(=O)O [Example 25, 2-(4-ethoxy-4′-(3-(4-(2-ethylphenyl)-5-oxo-1-(4-(trifluoromethyl)phenyl)-4,5-dihydro-1H-1,2,4-triazol-3-yl)propyl)-[1,1′-biphenyl]-3-yl)acetic acid]	29000 nM	343 nM	100 nM
CCOc1ccc(-c2ccc(CCCc3nn(-c4ccc(C(C)C)cc4)c(=O)n3-c3ccccc3Cl)cc2)cc1CC(=O)O [Example 27, 2-(4′-(3-(4-(2-chlorophenyl)-1-(4-isopropylphenyl)-5-oxo-4,5-dihydro-1H-1,2,4-triazol-3-yl)propyl)-4-ethoxy-[1,1′-biphenyl-]-3-yl)acetic acid]	28900 nM	28 nM	236 nM
CCOc1ccc(-c2ccc(CCCc3nn(-c4ccc(C(C)(C)C)cc4)c(=O)n3-c3c(Cl)cccc3Cl)cc2)cc1CC(=O)O [Example 28]	32900 nM	165 nM	789 nM

Results, then the molecule that gave them:

IC50 [1]	IC50 [2]	IC50 [3]	SMILES
27600 nM	386 nM	96 nM	CCOc1ccc(-c2cccc(CCCc3nn(-c4ccc(C(F)(F)F)cc4)c(=O)n3-c3ccccc3F)c2)cc1CC(=O)O [Example 30, 2-(4-ethoxy-3′-(3-(4-(2-fluorophenyl)-5-oxo-1-(4-(trifluoromethyl)phenyl)-4,5-dihydro-1H-1,2,4-triazol-3-yl)propyl)-[1,1′-biphenyl]-3-yl)acetic acid]
56900 nM	199 nM	742 nM	CCOc1ccc(-c2cccc(CCCc3nn(-c4ccc(C(F)(F)F)cc4)c(=O)n3C(C)C)c2)cc1CC(=O)O [Example 31]
32300 nM	138 nM	746 nM	CCOc1ccc(-c2ccc(CCCc3nn(-c4ccc(C(F)(F)F)cc4Cl)c(=O)n3-c3ccccc3F)cc2)cc1CC(=O)O [Example 33, 2-(4-ethoxy-4′-(3-(4-(2-fluorophenyl)-5-oxo-1-(2-chloro-4-(trifluoromethyl)phenyl)-4,5-dihydro-1H-1,2,4-triazol-3-yl)propyl)-[1,1′-biphenyl]-3-yl)acetic acid]
20000 nM	111 nM	34 nM	CCCOc1ccc(-c2ccc(CCCc3nn(-c4ccc(C(F)(F)F)cc4)c(=O)n3-c3ccccc3F)cc2)cc1CC(=O)O [Example 39, 2-(4-propoxy-4′-(3-(4-(2-fluorophenyl)-5-oxo-1-(4-(trifluoromethyl)phenyl)-4,5-dihydro-1H-1,2,4-triazol-3-yl)propyl)-[1,1′-biphenyl-]-3-yl)acetic acid]
